Consider two compounds from patent publication US20260076369A1, “USE OF MELATONIN AND/OR PRECURSOR THEREOF FOR DECREASING THE PLANT NITRATE CONTENT” (priority 2022, published 2026).

Assay [1] has as its system Lettuce plants (Lactuca sativa L.). The experiment in a line: Nitrate concentration in lettuce leaves after foliar spray. Format: in vivo. The note with it: for decrease of leaves nitrate content: 20 micromolar, vs control; for Nitrate concentration in lettuce leaves: 20 micromolar spray with Tween 20; for time the decrease of leaf nitrate content is maintained after the treatment: lettuce, 20 micromolar foliar spray. The protocol: Lettuce plants (Lactuca sativa L.), were cultivated in pots containing an alkaline soil and receiving mineral fertilization including ammonium nitrate (NAC 27) in a greenhouse under controlled conditions (16 h light/8 h dark and 25° C.). Once the commercial size of the plants was reached, the plants were divided in three groups. The Control group (CT) was sprayed with water and a surfactant (Tween 20); the melatonin (M) group was sprayed with a solution of 20 micromolar of synthetic melatonin and the adjuvant; and the tryptophan group (Tr) was sprayed with a solution of 20 micromolar of biosynthetic tryptophan and the adjuvant. The plants were harvested 48 h and […] after foliar application at 12 am. Nitrate concentration in the leaves was determined in leaf water extract by colorimetric detection at 415 nm after reaction of nitrate with salicylic acid in acidic medium and the formation of nitrosalicylate. Each treatment and harvest had five plants.

Assay [2] has as its system French Bean plants (Phaseolus vulgaris). The experiment in a line: Nitrate concentration in bean leaves after soil application. Format: in vivo. To be noted: 20 micromolar total. The protocol: French Bean plants (Phaseolus vulgaris), were cultivated in pots containing a peat substrate and receiving mineral fertilization including 40 kg N/hectare by ammonium nitrate and 20 kg SO3/hectare by magnesium sulfate in a greenhouse under controlled conditions (16 h light/8 h dark and 25° C.). The fertilizers were brought to the surface of the pots after 10 days of culture.
Just after adding the fertilizers, the plants were divided in four groups. The experiment was arranged in a randomized complete block design with six replicates. The Control group (CT) was without any treatment; 3 groups were treated by addition of an aqueous solution of (1) synthetic melatonin (SM) (20 micromolar), (2) phytomelatonin (pM) (20 micromolar) from a Spirulina extract and (3) a combination of synthetic melatonin (10 micromolar), and phytomelatonin from a rich Spirulina extract (CM) (10 micromolar). Applications have been done in the soils 10 days after transplantation and one time every 7 days. Plants were harvested 6 weeks after transplanting and 2 weeks after the last treatment. Then leaves were dried and used for the determination of dry weight and nitrate content. Nitrate concentration in the leaves was determined by High Performance Ionic Chromatography. The results were expressed in mg NO3/g of dry matter.

[3] abbreviates: harvest 48 h after foliar application, CT 1563.
[4] abbreviates: harvest 120 h after foliar application, CT 1452.

Marks after values point to notes of the source that are not given here.

In the case of `N[C@@H](Cc1c[nH]c2ccccc12)C(=O)O` [tryptophan], the “decrease of leaves nitrate content” value in assay [1] (48 h after the treatment) came to 50%; in assay [1] (120 h after the treatment), 39%. Moreover, the entries for the “Nitrate concentration in lettuce leaves” value in assay [1] (setting [3]) and in assay [1] (setting [4]) were 780* mg kg^−1 fresh weight and 887* mg kg^−1 fresh weight, respectively. Besides, the “time the decrease of leaf nitrate content is maintained after the treatment” value in assay [1] is recorded as “at least 5 days”.

For `COc1ccc2[nH]cc(CCNC(C)=O)c2c1` [Melatonin, N-acetyl-5-methoxy tryptamine], the entries for the “decrease of leaves nitrate content” value in assay [1] (48 h after the treatment) and in assay [1] (120 h after the treatment) were 53% and 50%, respectively. The figures for the “Nitrate concentration in lettuce leaves” value in assay [1] (setting [3]) and in assay [1] (setting [4]) were 738* mg kg^−1 fresh weight and 706* mg kg^−1 fresh weight, respectively. Moreover, in assay [1], the “time the decrease of leaf nitrate content is maintained after the treatment” value is “at least 5 days”. Also, in assay [2] (2 weeks after the last treatment, vs control), the “decrease of nitrate content in bean leaves” value came out at 79%. Further, in assay [2] (applied to soil every 7 days, harvest 2 weeks after last treatment, CT 2.47), the “Nitrate content in bean leaves” value is recorded as 0.52* mg/g of dry weight.
